Reference: ChEMBL document CHEMBL1141101, “Design, synthesis, and biological activity of m-tyrosine-based 16- and 17-membered macrocyclic inhibitors of hepatitis C virus NS3 serine protease” (J Med Chem, 2005)
Numbered stars: 1 amine (or outer) side, 2 acyl side, 3 side chain; on linkers, the order of the positions; unused ones are H or OH. Square brackets hold non-standard residues; d marks the D form. Peptide text beside a SMILES is read from it. * marks the point of attachment. Phe(3-CF3) = N[C@@H](Cc1cccc(C(F)(F)F)c1)C(=O)O; X1 = CCCC(N[*:1])C(=O)C(=O)[*:2]; Chg = N[C@H](C(=O)O)C1CCCCC1; Phg = N[C@H](C(=O)O)c1ccccc1; Boc = CC(C)(C)OC(=O)*

What follows are molecules tested against NS3 (Hepatitis C virus, UniProt A3EZJ3) (assay: Binding affinity for HCV NS3 protease measured by HCV continuous assay).
Parameters: species or system Hepacivirus hominis

Chain of NS3 (A3EZJ3 whole entry): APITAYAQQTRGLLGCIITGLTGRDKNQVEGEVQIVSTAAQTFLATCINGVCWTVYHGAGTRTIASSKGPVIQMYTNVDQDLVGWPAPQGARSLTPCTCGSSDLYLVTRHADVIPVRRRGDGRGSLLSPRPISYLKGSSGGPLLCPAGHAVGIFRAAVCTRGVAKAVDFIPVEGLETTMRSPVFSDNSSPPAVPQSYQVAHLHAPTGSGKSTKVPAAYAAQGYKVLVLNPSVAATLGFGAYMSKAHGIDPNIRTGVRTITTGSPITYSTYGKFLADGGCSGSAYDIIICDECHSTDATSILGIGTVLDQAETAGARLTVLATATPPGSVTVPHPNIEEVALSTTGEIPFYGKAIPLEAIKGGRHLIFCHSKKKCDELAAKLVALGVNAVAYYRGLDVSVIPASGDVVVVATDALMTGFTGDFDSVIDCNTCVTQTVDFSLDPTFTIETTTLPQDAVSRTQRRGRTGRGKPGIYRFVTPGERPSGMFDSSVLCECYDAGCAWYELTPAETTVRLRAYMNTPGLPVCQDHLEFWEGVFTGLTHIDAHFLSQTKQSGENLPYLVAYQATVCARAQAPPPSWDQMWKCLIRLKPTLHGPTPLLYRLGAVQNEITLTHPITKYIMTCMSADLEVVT

Compound | Ki [nM]
CCCC(NC(=O)[C@H](Cc1cccc(C(F)(F)F)c1)NC(=O)[C@@H](NC(=O)OC(C)(C)C)C1CCCCC1)C(=O)C(=O)NCC(=O)N[C@H](C(N)=O)c1ccccc1 (some centres not stated) (Boc-[Chg][Phe(3-CF3)][X1]G[Phg]-NH2) | 8000
CCCC(NC(=O)[C@@H]1Cc2cccc(c2)OCCCCCCC(=O)N[C@@H](C2CCCCC2)C(=O)N1)C(=O)C(=O)NCC(=O)N[C@H](C(=O)OC(C)(C)C)c1ccccc1 (some centres not stated) | 5500
CCCC(NC(=O)[C@@H]1Cc2cccc(c2)OCCCCCC(=O)N[C@@H](C2CCCCC2)C(=O)N1)C(=O)C(=O)NCC(=O)N[C@H](C(=O)OC(C)(C)C)c1ccccc1 (some centres not stated) | > 8900

Other lines, results leading:

Ki [nM] | Compound
1200 | CCCC(NC(=O)[C@@H]1Cc2cccc(c2)OCCCCCC(=O)N[C@@H](C2CCCCC2)C(=O)N1)C(=O)C(=O)NCC(=O)N[C@H](C(=O)O)c1ccccc1 (some centres not stated)
310 | CCCC(NC(=O)[C@@H]1Cc2cccc(c2)OCCCCCCC(=O)N[C@@H](C2CCCCC2)C(=O)N1)C(=O)C(=O)NCC(=O)N[C@H](C(=O)N(C)C)c1ccccc1 (some centres not stated)
170 | CCCC(NC(=O)[C@@H]1Cc2cccc(c2)OCCCCCCC(=O)N[C@@H](C2CCCCC2)C(=O)N1)C(=O)C(=O)NCC(=O)N[C@H](C(=O)NC)c1ccccc1 (some centres not stated)
160 | CCCC(NC(=O)[C@@H]1Cc2cccc(c2)OCCCCCCC(=O)N[C@@H](C2CCCCC2)C(=O)N1)C(=O)C(=O)NCC(=O)N[C@H](C(=O)O)c1ccccc1 (some centres not stated)
